According to the NIST ThermoML archive (doi:10.1021/je901030f):
Numbers after ± are expanded uncertainties.

Conditions: 101.33 kPa, Crystal, Buoyancy - hydrostatic balance with magnetic suspension - one sinker

Compound `[Cl-].[Cs+]` [cesium chloride] has a mass density (843 K) of 3074.5 ± 16 kg/m3, a mass density (853 K) of 3067.6 ± 16 kg/m3 and a mass density (863 K) of 3060.2 ± 16 kg/m3. The mass density (873 K) was 3052.4 ± 16 kg/m3, the mass density (883 K) was 3046 ± 16 kg/m3 and the mass density (893 K) was 3040.9 ± 15 kg/m3. The mass density (903 K) was 3039.5 ± 15 kg/m3 and the mass density (913 K) was 3041.8 ± 16 kg/m3.

For `[Cl-].[K+]` [potassium chloride], the mass density (973 K) was 1805.8 ± 9.2 kg/m3, the mass density (983 K) was 1803.6 ± 9.2 kg/m3 and the mass density (993 K) was 1800.6 ± 9.2 kg/m3. It also gave a mass density (1003 K) of 1797.1 ± 9.1 kg/m3, a mass density (1013 K) of 1794.5 ± 9.1 kg/m3 and a mass density (1023 K) of 1793.6 ± 9.1 kg/m3. The mass density (1033 K) was 1793.6 ± 9.1 kg/m3 and the mass density (1043 K) was 1796.6 ± 9.1 kg/m3.

`[Cl-].[Rb+]` [rubidium chloride] gave a mass density (903 K) of 2578.4 ± 13 kg/m3, a mass density (913 K) of 2573.5 ± 13 kg/m3 and a mass density (923 K) of 2567.8 ± 13 kg/m3. It also gave a mass density (933 K) of 2562.2 ± 13 kg/m3, a mass density (943 K) of 2556.1 ± 13 kg/m3 and a mass density (953 K) of 2551.7 ± 13 kg/m3. The mass density (963 K) was 2548.6 ± 13 kg/m3, the mass density (973 K) was 2547.6 ± 13 kg/m3 and the mass density (983 K) was 2550.3 ± 13 kg/m3. For the same compound, the mass density (993 K) was 2556.4 ± 13 kg/m3.

Compound `[Cl-].[Na+]` [sodium chloride] has a mass density (1013 K) of 1931.2 ± 9.8 kg/m3, a mass density (1023 K) of 1905.8 ± 9.7 kg/m3 and a mass density (1033 K) of 1890.4 ± 9.6 kg/m3. The mass density (1043 K) was 1888.3 ± 9.6 kg/m3, the mass density (1053 K) was 1882 ± 9.6 kg/m3 and the mass density (1063 K) was 1884.9 ± 9.6 kg/m3. It also gave a mass density (1073 K) of 1889.8 ± 9.6 kg/m3.
